The source of these data is ChEMBL document CHEMBL5380808, “Design, Synthesis, and Biological Activity of Marinacarboline Analogues as STAT3 Pathway Inhibitors for Docetaxel-Resistant Triple-Negative Breast Cancer” (J Med Chem, 2023).

The nature of data set [1]: Synergistic antiproliferative activity against docetaxel-resistant human MDA-MB-231-DTR cells assessed as combination index at 2 uM incubated for 72 hrs in presence of 4 uM of docetaxel by Chou-Talalay method. It is filed as functional.
Data set [2] can be described thus: Induction of cell cycle arrest in docetaxel-resistant human MDA-MB-231-DTR cells assessed as accumulation at S phase at 5 uM incubated for 36 hrs by PI staining based flow cytometry analysis (reference value: 11.57%). It counts as functional.
Data set [3] deals with MDA-MB-231. Description: Antitumor activity against docetaxel-resistant human MDA-MB-231-DTR cells xenografted in BALB/c mouse assessed as downregulation of phosphorylated STAT3 level in tumor tissue at 10 mg/kg, ip daily for 12 days by Immunohistochemical analysis. It counts as functional, organism-based. The conditions noted are these: time 12.0 day.
A short description of data set [4]: Induction of cell cycle arrest in docetaxel-resistant human MDA-MB-231-DTR cells assessed as accumulation at G0/G1 phase at 10 uM incubated for 36 hrs by PI staining based flow cytometry analysis (reference value: 74.77%). It counts as functional.
Data set [5] is described as follows: Induction of cell cycle arrest in docetaxel-resistant human MDA-MB-231-DTR cells assessed as accumulation at subG1 phase at 5 uM incubated for 36 hrs by PI staining based flow cytometry analysis (reference value: 0.52%). It is filed as functional.
Data set [6] concerns MDA-MB-231. As to the kind of experiment: Inhibition of cell migration in docetaxel-resistant human MDA-MB-231-DTR cells assessed as upregulation of E-cadherin expression level at 3 to 6 uM incubated for 24 hrs by Western blot analysis. It is filed as functional, cell-based. To be noted: dose 3-6 µM.
The subject of data set [7] is MDA-MB-231. As to the kind of experiment: Induction of apoptosis in docetaxel-resistant human MDA-MB-231-DTR cells assessed as upregulation of cleaved-PARP expression level at 2.5 to 10 uM incubated for 48 hrs by Western blot analysis. It counts as functional, cell-based. To be noted: dose 2.5-10 µM.
The nature of data set [8]: Induction of cell cycle arrest in docetaxel-resistant human MDA-MB-231-DTR cells assessed as accumulation at G2/M phase at 2.5 uM incubated for 36 hrs by PI staining based flow cytometry analysis (reference value: 13.16%). It counts as functional.
Data set [9] in a line: Induction of cell cycle arrest in docetaxel-resistant human MDA-MB-231-DTR cells assessed as accumulation at S phase at 5 uM incubated for 12 hrs by PI staining based flow cytometry analysis (reference value: 10.56%). It is filed as functional.
The nature of data set [10]: Induction of cell cycle arrest in docetaxel-resistant human MDA-MB-231-DTR cells assessed as accumulation at S phase at 2.5 uM incubated for 36 hrs by PI staining based flow cytometry analysis (reference value: 11.57%). It is filed as functional.
The nature of data set [11]: Induction of cell cycle arrest in docetaxel-resistant human MDA-MB-231-DTR cells assessed as accumulation at subG1 phase at 5 uM incubated for 36 hrs by PI staining based flow cytometry analysis (reference value: 0.41%). It is filed as functional.
The nature of data set [12]: Toxicity in BALB/c mouse xenografted with docetaxel-resistant human MDA-MB-231-DTR cells assessed as body weight change at 5 mg/kg, ip daily for 12 days. It is filed as organism-based. To be noted: in vivo, 288 h, time 12 day.
For data set [13], the target named is T1, Signal transducer and activator of transcription 5A (Homo sapiens) (UniProt P42229).
T1 sequence (whole entry): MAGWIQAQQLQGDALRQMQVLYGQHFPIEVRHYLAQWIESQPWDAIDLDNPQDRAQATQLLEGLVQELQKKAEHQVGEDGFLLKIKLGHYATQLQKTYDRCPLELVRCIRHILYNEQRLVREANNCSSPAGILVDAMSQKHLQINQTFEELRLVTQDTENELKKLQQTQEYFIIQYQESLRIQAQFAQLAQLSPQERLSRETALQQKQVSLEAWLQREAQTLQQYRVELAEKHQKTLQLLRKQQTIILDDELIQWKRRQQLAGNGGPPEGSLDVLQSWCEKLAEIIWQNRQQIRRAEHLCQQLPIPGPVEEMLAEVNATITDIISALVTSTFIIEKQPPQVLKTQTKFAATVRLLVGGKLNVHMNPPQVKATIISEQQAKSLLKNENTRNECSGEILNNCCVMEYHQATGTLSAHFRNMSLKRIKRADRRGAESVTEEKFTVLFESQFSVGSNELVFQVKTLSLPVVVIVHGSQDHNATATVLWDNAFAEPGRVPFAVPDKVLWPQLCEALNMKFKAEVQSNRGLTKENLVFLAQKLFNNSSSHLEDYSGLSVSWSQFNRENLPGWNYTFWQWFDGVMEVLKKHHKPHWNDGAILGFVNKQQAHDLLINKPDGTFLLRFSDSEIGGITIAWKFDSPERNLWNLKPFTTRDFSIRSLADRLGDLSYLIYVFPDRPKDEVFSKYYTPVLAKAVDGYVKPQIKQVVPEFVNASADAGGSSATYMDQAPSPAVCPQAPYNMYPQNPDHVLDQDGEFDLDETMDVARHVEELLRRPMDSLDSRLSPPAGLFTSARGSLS
Description: Inhibition of STAT5 phosphorylation at Y694 residue in docetaxel-resistant human MDA-MB-231-DTR cells assessed as decrease in phosphorylated STAT5 level at 2.5 to 10 uM incubated for 24 hrs by Western blot analysis. It counts as cell-based. The conditions noted are these: dose 2.5-10 µM.

The subject of data set [14] is MDA-MB-231. As to the kind of experiment: Induction of cell cycle arrest at G2/M phase in docetaxel-resistant human MDA-MB-231-DTR cells assessed as downregulation of Cdc25C expression level at 2.5 to 10 uM incubated for 36 hrs by Western blot analysis. It is filed as functional, cell-based. To be noted: dose 2.5-10 µM.
A short description of data set [15]: Induction of cell cycle arrest in docetaxel-resistant human MDA-MB-231-DTR cells assessed as accumulation at G0/G1 phase at 5 uM incubated for 36 hrs by PI staining based flow cytometry analysis (reference value: 74.77%). It is filed as functional.
Data set [16] deals with MDA-MB-231. As to the kind of experiment: Inhibition of cell migration in docetaxel-resistant human MDA-MB-231-DTR cells assessed as downregulation of vimentin expression level at 3 to 6 uM incubated for 24 hrs by Western blot analysis. It counts as functional, cell-based. The conditions noted are these: dose 3-6 µM.
A short description of data set [17]: Induction of cell cycle arrest in docetaxel-resistant human MDA-MB-231-DTR cells assessed as accumulation at G2/M phase at 5 uM incubated for 48 hrs by PI staining based flow cytometry analysis (reference value: 13.54%). It is filed as functional.
For data set [18], the system named is MDA-MB-231. Description: Antitumor activity against docetaxel-resistant human MDA-MB-231-DTR cells xenografted in BALB/c mouse assessed as upregulation of E-cadherin level in tumor tissue at 10 mg/kg, ip daily for 12 days by Immunohistochemical analysis. It counts as functional, organism-based. The conditions noted are these: time 12.0 day.
The nature of data set [19]: Induction of cell cycle arrest in docetaxel-resistant human MDA-MB-231-DTR cells assessed as accumulation at subG1 phase at 10 uM incubated for 36 hrs by PI staining based flow cytometry analysis (reference value: 0.52%). It is filed as functional.
A short description of data set [20]: Induction of cell cycle arrest in docetaxel-resistant human MDA-MB-231-DTR cells assessed as accumulation at subG1 phase at 5 uM incubated for 48 hrs by PI staining based flow cytometry analysis (reference value: 0.41%). It counts as functional.
Data set [21] in a line: Induction of cell cycle arrest in docetaxel-resistant human MDA-MB-231-DTR cells assessed as accumulation at subG1 phase at 2.5 uM incubated for 36 hrs by PI staining based flow cytometry analysis (reference value: 0.52%). It is filed as functional.
A short description of data set [22]: Synergistic antiproliferative activity against docetaxel-resistant human MDA-MB-231-DTR cells assessed as combination index at 8 uM incubated for 72 hrs in presence of 2 uM of docetaxel by Chou-Talalay method. It is filed as functional.

Active and inactive are the calls of the source. The calls are words filed in the database; no cut-off is given here.

For the molecule `O=C(NCCc1c[nH]c2ccccc12)c1cc2c([nH]c3ccccc32)c(C(=O)c2ccc(Br)cc2)n1`, the CI in [1] was 0.32; in [22], 0.45. In addition, the Activity in data set [2] is on record as 20.82%; in [4], 51.09%; in data set [5], 1.81%; in data set [8], 25.18%; in data set [9], 12.14%; in [10] it was 12.13%. Besides, the Activity is 4.35% in data set [11]; “Non-Toxic” in [12]; 51.37% in data set [15]; 12.87% in [17]; 2.51% in [19]; 19.53% in data set [20]. Further, the Activity in [21] is on record as 0.57%. The result with MDA-MB-231 [3], in the data set with MDA-MB-231 [7], in the data set with MDA-MB-231 [14] and with MDA-MB-231 [18] was Active. The inhibition entry in the data set on MDA-MB-231 [6] and in the data set with MDA-MB-231 [16] was “Active” in each case. The inhibition entry in data set [13] was “inactive”.
